# US7030236B2, “Antisense oligonucleotides tarageting folate receptor alpha, and the use thereof” (priority 2001, dated 2006)
# B1: Rz 187/210 WT: wild type hammerhead ribozyme targeted to 5′ region of αhFR open reading frame; encoding DNA in Table II (nucleic acid)
# DNA 1: CCCGTCGACAATGCCTGCTGTTTCGTCCTCACGGACTCATCAGCTACCAACACAAGCTTCCC
# DNA 2: GGGCAGCTGTTACGGACGACAAAGCAGGAGTGCCTGAGTAGTCGATGGTTGTGTTCGAAGGG
# modifications: target site or template, no part of the molecule; chemistry not given here; one strand is listed 3' to 5'
# B2: Rz 187/210 MUT: mutant control ribozyme, G in the catalytic structure changed to A (nucleic acid)
# DNA 1: CCCGTCGACAATGCCTGCTGTTTCGTCCTCACGGATTCATCAGCTACCAACACAAGCTTCCC
# DNA 2: GGGCAGCTGTTACGGACGACAAAGCAGGAGTGCCTAAGTAGTCGATGGTTGTGTTCGAAGGG
# modifications: target site or template, no part of the molecule; chemistry not given here; one strand is listed 3' to 5'
# notes: mutant control ribozyme, G in the catalytic structure changed to A
# Columns and labels:
# Format in all cases: cell-based, human
# αhFR mRNA = assay: Northern analysis of αhFR mRNA in KB cells; conditions: oligonucleotide treatment over night
# Source text: Expression of αhFR is known to be elevated in cancer. In particular, increased αhFR expression is found in 90% of human epithelial ovarian malignancies and is associated with a poor disease prognosis. It is possible that over expression of αhFR confers a growth survival advantage in ovarian cancer cells, since folates are involved in numerous cellular processes, including DNA and RNA synthesis.
# Northern Analysis. KB cells were maintained over night in growth media containing sense or antisense unmodified DNA oligonucleotides at the indicated concentrations. Total RNA was isolated (Promega, Madison, Wis.) and samples containing 20 μg of total cellular RNA were resolved on a 1% agarose/0.66M formaldehyde/0.023 3-(N-morpholino) propansulfonic acid gel. The RNA's were transferred to a nitrocellulose membrane (Schleicher and Schuell, Portran, Keene, N.H.) and then hybridized to a random ^32P-labeled αhFR cDNA probe as described previously.
# MDA-MB-231 = assay: XTT cell survival after Tf-liposome-mediated oligonucleotide transfection, MDA-MB-231; conditions: MDA-MB-231, end-modified phosphorothioated oligo, 6 hrs transfection, XTT at 48 hrs
# Protocol: (§1) FIGS. 10A–10B: FIGS. 10A and 10B depict the effect of various concentrations of αhFR AS-6 oligonucleotide (A) and S-6 oligonucleotide (B) on survival of cultured human breast cancer cells. End-modified phosphorothioated oligonucleotides were transfected into 2×10^4 cells at the indicated concentrations for 6 hrs using a Tf-liposome-mediated delivery complex. Cell survival was assessed 48 hrs after transfection by XTT assay.
# (§2) To determine the effect of αhFR antisense oligonucleotide, on the survival of cultured breast cancer cells, we transfected AS6 oligonucleotide and S6 oligonucleotide at various concentrations via the Tf-liposome-mediated gene delivery system.
# T47D = assay: XTT cell survival after Tf-liposome-mediated oligonucleotide transfection, T47D
# Protocol: as §1, §2
# MDA-MB-435 cells = assay: Chemosensitization to doxorubicin, XTT assay; conditions: 500 nM oligo, doxorubicin 24 hrs after transfection, XTT after 72 hrs
# Protocol: FIG. 11: FIG. 11 depicts chemosensitization of MDA-MB-435 breast cancer cells after combination treatment with αhFR AS6 oligonucleotide and doxorubicin. MDA-MB-435 cells were plated at 2×10^4 cells/well and transfected with 500 nM of αhFR AS6 or S6 end-modified phosphorothioated oligonucleotide. After 24 hrs, cells were incubated with media containing doxorubicin at the indicated concentrations. Cell survival was determined by XTT assay after 72 hrs.
# To determine whether or not αhFR antisense oligonucleotide sensitizes breast cancer cells to chemotherapy, the following experiment was carried out. 500 nM of AS6 oligonucleotide or S6 oligonucleotide was transfected into MDA-MB-435 cells and treated with varying concentrations of doxorubicin, twenty-four hours after transfection. Cell survival was determined after 72 hrs by XTT assay and the degree of sensitization was calculating by determining the ratio of IC50 values of the combined treatment relative to that of the S6 oligonucleotide and untreated controls. In FIG. 11, chemosensitization of MDA-MD-435 cells by AS6 oligonucleotide was about 5 fold (IC50 S6/IC50 AS6=5) relative to the sense control and about 10 fold (IC50 UT/IC50 AS6=10) relative to the untreated control.
# MDA-MB-435 = assay: XTT cell survival after Tf-liposome-mediated oligonucleotide transfection, MDA-MB-435; conditions: MDA-MB-435, end-modified phosphorothioated oligo, 6 hrs transfection, XTT at 48 hrs
# Protocol: as §1, §2
# KB cells [1] = assay: KB cell viability after oligonucleotide treatment, total protein content by Bradford assay; conditions: compared to S-6 control
# Protocol: The effect of AS-6 on the viability of cultured KB cells was evaluated (FIG. 3). […] The decrease in cell viability upon AS-6 treatment correlates well with the decrease in newly synthesized αhFR expression, as determined in FIG. 2B.
# Cell Viability Experiments. Stable transfectants of pRc/CMV αhFR-S or pRc/CMV ahFR-AS constructs were achieved by the calcium phosphate method using the Stratagene Eukaryotic Transfection kit (La Jolla, Calif.) and selected in 500 μg/ml G418. Phosphorothioated-modified αhFR sense (S-6) and antisense (AS-6) DNA oligonucleotides were transfected into 6×10^4 KB cells by incubating oligonucleotides in 1 ml of serum-free media for 6 hrs. Transfections were terminated by the addition of 1 ml of serum-containing low-folate media. Total protein content was assessed 36 hours later by Bradford assay (Biorad, Hercules, Calif.).
# KB cells [2] = assay: KB cell viability after cytofectin transfection of ribozymes, Cell Counting Kit-8 colorimetric assay
# Protocol: The viability of KB cells transfected with wild type or control mutant and sense ribozymes was assessed by colormetric assay. […] (FIG. 6A). […] Approximately 75% of the initial transfected ribozyme amounts disappeared after 1 hour. The quick half-life of ribozyme integrity may explain the unexpected lowered effect of αhFR ribozymes versus antisense oligonucleotides on KB cell survival.
# In vitro synthesized wild type, mutant or sense-oriented ribozymes were transfected into 6×10^4 KB cells with cytofectin (Glen Research, Rockville, Md.), according to manufacturers instruction. Transfections were terminated by replacing media with 1 ml of serum-containing low-folate media. Cell viability was quantitated after 36 hours by the Cell Counting Kit-8 (Dojindo, Gaithersburg, Md.). For ribozyme decay analysis, in vitro synthesized ribozymes were radiolabeled with [α-^32P]-rCTP and rGTP using the riboprobe kit (Promega, Madison, Wis.). Radiolabeld ribozymes were transfected by the cytofectin method as described above. Total RNA was extracted at the indicated time points using the RNeasy mini kit (Quiagen, Valencia, Calif.), fractionated on a 6% sequencing gel and visualized by autoradiography. Amounts of intact internalized ^32P-labeled ribozyme were determined using the NIH image software.
molecule,measurement,setting,value
"AS-1: antisense 21-mer DNA TGTTGTCATCCGCTGAGCCAT, αhFR open reading frame 21–1, SEQ ID NO. 2 (antisense TGTTGTCATCCGCTGAGCCAT; unmodified DNA)",αhFR mRNA by Northern analysis,αhFR mRNA,remained unaffected
"AS-2: antisense 21-mer DNA AGGAGGTCAGCTGAGCAGCCA, αhFR open reading frame 780–760, SEQ ID NO. 3 (antisense AGGAGGTCAGCTGAGCAGCCA; unmodified DNA)",αhFR mRNA by Northern analysis,αhFR mRNA,remained unaffected
"AS-6: antisense 21-mer DNA GCTCTTGCAGGTGTAGGAGGT, αhFR ORF 462–442, SEQ ID NO. 4; unmodified or phosphorothioated (antisense GCTCTTGCAGGTGTAGGAGGT; DNA, backbone and methylation of C not given here; phosphorothioate modified, described as end-modified)",IC50,MDA-MB-231,600 nM
same,IC50,"T47D; T47D, end-modified phosphorothioated oligo, 6 hrs transfection, XTT at 48 hrs",633 nM
same,"chemosensitization to doxorubicin, IC50 S6/IC50 AS6",MDA-MB-435 cells; relative to sense control,about 5 fold
same,"chemosensitization to doxorubicin, IC50 UT/IC50 AS6",MDA-MB-435 cells; relative to untreated control,about 10 fold
same,IC50,MDA-MB-435,416 nM
same,αhFR mRNA by Northern analysis,αhFR mRNA,remained unaffected
same,decrease in overall protein content,KB cells [1]; 10 μM phosphorothioate-modified oligo,20%
same,decrease in overall protein content,KB cells [1]; 50 μM phosphorothioate-modified oligo,60%
"S6: sense control 21-mer ACCTCCTACACCTGCAAGAGC, 442–462 (sense ACCTCCTACACCTGCAAGAGC; DNA, backbone and methylation of C not given here; S-6 used both unmodified and phosphorothioate-modified, form not tied to measurement, further chemistry not fully specified) [reference compound]",effect on survival of model breast cancer cell lines,"T47D; stated for the breast cancer cell lines together (T47D, MDA-MB-231, MDA-MB-435), versus AS6",significantly less effect
B1,decrease in cell survival,"KB cells [2]; KB cells, compared to control mutant and sense ribozymes",approximately 60%
B2,effect on cell survival,KB cells [2]; KB cells transfected with ribozyme,"little, if any effect"
